Measurements: patent US4141993A, “Compounds of diphenylcyclopentylamine type and methods for their preparation” (priority 1971, dated 1979)
Read-outs that look alike come from different tables or passages of the source.

Legend:
Dopa response = Dopa response potentiation test; format: in vivo, mice; conditions: for L-DOPA potentiation, 10 mg/kg i.p., 1h / L-DOPA potentiation, 10 mg/kg i.p., 4h: score, pargyline pretreated; for L-DOPA potentiation, 10 mg/kg i.p., 1h: drug 1 h before 1-Dopa 100 mg/kg i.p.; for L-DOPA potentiation, 10 mg/kg i.p., 4h: drug 4 h before 1-Dopa 100 mg/kg i.p.; for L-DOPA potentiation, entry given as a bound (no score): printed in the 1h column, head 10 mg/kg i.p.
Protocol: Mice in groups of 3 are pretreated with Pargyline® 40 mg/kg p.o. about 10-16 hours before the test. […] 1-Dopa gives a characteristic syndrome which is scored as follows:
1. piloerection, slight salivation, slight increased motor activity
2. piloerection, salivation, marked increased motor activity and irritability
3. piloerection, profuse salivation, marked irritability and reactivity, jumping, squeaking, fighting.
The control groups are Amitriptyline (20 mg/kg i.p. 4 hours before 1-Dopa) and saline (1 hour before 1-Dopa). […] The test drugs were all tested at 10 mg/kg i.p.

[1] = test system: uptake of tritiated noradrenaline; test: Inhibition of the uptake of tritiated noradrenaline in vitro (cortex slices); format: biochemical; conditions: for Inhibition (50 %) of uptake in vitro, NA: dl-noradrenaline 10^-7 M
Protocol: (§1) 2. Inhibition of the uptake of tritiated noradrenaline in vitro and in vivo
(§2) The method is found in European Journal of Pharmacology 2 (1967), 181- 186. The animals were killed half or one hour after the administration of the drugs in vivo (i.p.). The slices, made from cortex, were preincubated for five minutes and incubated with 0.1 μmole per ml of ^3 H-noradrenaline for further five minutes. The incubation mixture consisted of 0.2 μmole of ^3 H-NA and the brain slices in 2 ml of Krebs-Henseleits buffer, pH 7.4. The radioactive ^3 H-NA taken up in the slices was extracted with ethanol and the amount was determined by liquid scintillation. The dose producing 50 percent decrease of the active uptake (ED50) was determined graphically from dose response curves. At least four animals were used at each dose level.
Inhibition (50 %) of uptake
^2) Na = dl-noradrenaline 10^-7 M

uptake of tritiated 5-HT [2] = test: Inhibition of the uptake of tritiated 5-HT in vivo (drug i.p., uptake in midbrain slices); set-up: species or system mice; conditions: for ED50: Mus musculus, ip, 0.5 h, read-out: Inhibition (50 %) of uptake in vivo, 5-HT (ED50), i.p., half an hour before the animals were killed
Protocol: (§3) 1. Inhibition of the uptake of tritiated 5-HT in vitro and in vivo
(§4) The drugs were administered intraperitoneally half an hour before the animals were killed and the midbrain was taken out and sliced and incubated in a mixture consisting of, per 100 mg of brain slices, 0.2 μmole of ^3 H-5-HT and 1 μmole of glucose in 2 ml of Krebs-Henseleit buffer, pH 7.4. The incubation time was 5 minutes with 5 minutes of preincubation before ^3 H-5-HT was added. The radioactive ^3 H-5-HT taken up in the slices was extracted with ethanol and the amount was determined by liquid scintillation. […] Active uptake is defined as that part of the radioactive uptake which is inhibited by a high concentration of cocaine. All doses were given at least to four animals.

mice [3] = test: Motor activity in mice (exploratory activity, locomotion cage); format: in vivo; conditions: Mus musculus, ip, 1 h, read-out: Motor activity ID50
Protocol: The exploratory activity of mice was recorded in a locomotion cage in which the movements were counted each time the animals cross-circuit an electrical current in the bottom plate. The activity was recorded for ten minutes one hour after the administration of the drug. The animals were tested individually. Groups of six mice were used and the mice were only used once. The activity was expressed in percent of the activity of control groups ran simultaneously.

mice [4] = test: Anticholinergic effect (mydriasis) in mice; format: in vivo
Protocol: (§5) Acute toxicity, behavior and anticholinergic effect (mydriasis) in mice
(§6) The compounds were given by intravenous route to 3 mice. […] Seizures, gait, sedation and grip strength were recorded. […] PD200 is the dose which increases the pupil by 200%.

5-HTP response = 5-HTP response potentiation test; format: in vivo, mice; conditions: 0 = without effect; for 5-HTP potentiation, 25 mg/kg i.p., 1h: drug 1 h before 5-HTP; for 5-HTP potentiation, 25 mg/kg i.p., 4h: drug 4 h before 5-HTP
Protocol: 1. 5-HTP response potentiation test
Inhibition of the uptake of 5-HT potentiates the effects of administered 5-hydroxytryptophane (5-HTP) probably by increasing the amount of 5-HT at the receptor.
These small movements are quantitatively measured in an activity box, type Animex, which can distinguish between small and gross movements. The activity is measured during 20 minutes and only in the case the animals have a fullblown syndrome.

uptake of tritiated 5-HT [5] = test: Inhibition of the uptake of tritiated 5-HT in vitro (midbrain slices); format: biochemical, mice; conditions: for Inhibition (50 %) of uptake in vitro, 5-HT: 5-hydroxytryptamine 10^-7 M
Protocol: as §3
as §4, with “The drugs were administered intraperitoneally half an hour before the animals were killed and the midbrain was taken” left out, “0.2 μmole of ^3 H-5-HT and 1 μmole of glucose in” left out

Acute toxicity in mice = conditions: mouse, in vivo, iv, within 24 hours
Protocol: as §5, §6

[6] = test system: uptake of tritiated noradrenaline; test: Inhibition of the uptake of tritiated noradrenaline in vivo (drug i.p., uptake in cortex slices); conditions: for ED50: ip, 1 h, read-out: Inhibition (50 %) of uptake in vivo, NA (ED50), i.p., half or one hour before the animals were killed; for selectivity towards noradrenaline: uptake inhibition, compared with imipramine
Protocol: as §1
as §2, with “The” for “The method is found in European Journal of Pharmacology 2 (1967), 181- 186. The”

uptake of tritiated 5-HT [7] = test: Inhibition of the uptake of tritiated 5-HT in vivo (drug i.p., uptake in midbrain slices); set-up: species or system mice
[8] = i.p., one hour after administration
[9] = i.v., 10 minutes after injection, dose which increases the pupil by 200%

Row | SMILES | Inhibition (50 %) of uptake in vitro, NA [1] [µg/mL] | inhibition of uptake of noradrenaline in vitro, in words [1] | ED50 (uptake of tritiated 5-HT [2]) [mg/kg] | ED50 (mice [3]; [8]) [mg/kg] | Mydriasis PD200 (mice [4]; mouse, in vivo, iv, 10 min) [mg/kg] | 5-HTP potentiation, 25 mg/kg i.p., 1h (5-HTP response) | Inhibition (50 %) of uptake in vitro, 5-HT (uptake of tritiated 5-HT [5]) [µg/mL] | inhibition of uptake of 5-hydroxytryptamine in vitro, in words (uptake of tritiated 5-HT [5]) | LD50 at 24 h (Acute toxicity in mice) [mg/kg] | ED50 [6] [mg/kg] | L-DOPA potentiation, 10 mg/kg i.p., 1h (Dopa response) | L-DOPA potentiation, 10 mg/kg i.p., 4h (Dopa response) | inhibition of uptake of noradrenaline in vivo, in words [6] | other results
1 | CN(C)CCC=C1c2ccccc2CCc2ccccc21 [Amitriptyline, reference compound] | – | – | – | – | – | – | – | – | – | – | – | – | – | Dopa response score of control (Dopa response; 20 mg/kg i.p. 4 hours before 1-Dopa): three
2 | CNC1CCC(c2ccccc2)(c2ccccc2)C1 (stereo not drawn) [PUB 107, 1-methylamino-3,3-diphenylcyclopentane] | 0.7 | potent inhibitors | > 40 | > 50 | 15 | 0 | 1 | potent inhibitors | 30 | 20 | 2 | 2 | – | –
3 | CN(C)C1CCC(c2ccccc2)(c2ccccc2)C1 (stereo not drawn) [PUB 112, 1-dimethylamino-3,3-diphenylcyclopentane] | 0.4 | potent inhibitors | > 40 | – | – | 25 | 0.7 | potent inhibitors | 18 | 25 | 2.5 | 2 | – | ED50 (mice [3]): > 50 mg/kg; Mydriasis PD200 (mice [4]; [9]): < 1 mg/kg
4 | CN(C)CC1CCC(c2ccccc2)(c2ccccc2)C1 (stereo not drawn) [PUE 117, 1-dimethylaminomethyl-3,3-diphenylcyclopentane] | 2.3 | – | > 40 | – | – | 0 | 3.6 | – | 30 | 17 | 3 | 1.5 | – | ED50 (mice [3]): > 50 mg/kg; Mydriasis PD200 (mice [4]; [9]): < 1 mg/kg
5 | NCC1CCC(c2ccccc2)(c2ccccc2)C1 (stereo not drawn) [PUE 119, 1-aminomethyl-3,3-diphenylcyclopentane] | 0.025 | strongly effective | > 40 | – | – | 0 | 0.34 | considerably weaker effect | 22 | – | 1.5 | 1.5 | Strong inhibition of the uptake of noradrenaline only | ED50 (mice [3]): > 50 mg/kg; Mydriasis PD200 (mice [4]; [9]): 2.5 mg/kg; 5-HTP potentiation, 25 mg/kg i.p., 4h (5-HTP response): 0
6 | CNCC1CCC(c2ccccc2)(c2ccccc2)C1 (stereo not drawn) [PUE 122, 1-methylaminomethyl-3,3-diphenylcyclopentane] | 0.05 | strongly effective | > 40 | > 50 | > 12.5 | 0 | 4.2 | considerably weaker effect | 15 | 5.5 | 3 | 3 | Strong inhibition of the uptake of noradrenaline only | –
7 | NC1CCC(c2ccccc2)(c2ccc(Cl)cc2)C1 (stereo not drawn) [PUN 122, 1-amino-3-(4-chlorophenyl)-3-phenylcyclopentane] | 0.3 | potent inhibitors | 20 | > 50 | > 12.5 | 25 | 0.7 | potent inhibitors | 15 | 30 | 3 | 3 | strong inhibition | inhibition of uptake of 5-hydroxytryptamine in vivo, in words (uptake of tritiated 5-HT [2]): strong inhibition; uptake inhibition still pronounced after (uptake of tritiated 5-HT [7]): 16 h; time of maximal uptake inhibition (uptake of tritiated 5-HT [7]; uptake inhibition increases with time): four; duration of inhibition of the uptake mechanism compared with imipramine (uptake of tritiated 5-HT [7]; uptake of 5-HT and noradrenaline): much longer time than does the reference substance imipramine; selectivity towards noradrenaline [6]: substantially nonselective ability towards noradrenaline
8 | CN(C)C1CCC(c2ccccc2)(c2ccc(Cl)cc2)C1 (stereo not drawn) [PUN 123, 1-dimethylamino-3-(4-chlorophenyl)-3-phenylcyclopentane] | 1 | potent inhibitors | 40 | > 50 | < 10 | 25 | 1 | potent inhibitors | 30 | 30 | – | 3 | strong inhibition | inhibition of uptake of 5-hydroxytryptamine in vivo, in words (uptake of tritiated 5-HT [2]): strong inhibition; 5-HTP potentiation, 25 mg/kg i.p., 4h (5-HTP response): 0; selectivity towards noradrenaline [6]: substantially nonselective ability towards noradrenaline
9 | CNC1CCC(c2ccccc2)(c2ccc(Cl)cc2)C1 (stereo not drawn) [PUN 125, 1-methylamino-3-(4-chlorophenyl)-3-phenylcyclopentane] | 1 | – | > 40 | – | – | 0 | 2 | – | – | > 40 | 1 | 1 | – | –
10 | COc1ccc(C2(c3ccccc3)CCC(N)C2)cc1 (stereo not drawn) [PUT 104, 1-amino-3-(4-methoxyphenyl)-3-phenylcyclopentane] | 1 | potent inhibitors | > 40 | – | > 40 | > 25 | 0.5 | potent inhibitors | > 40 | > 40 | – | – | – | L-DOPA potentiation, entry given as a bound (no score) (Dopa response): > 10
11 | NC1CCC(c2ccc(Cl)cc2)(c2ccc(Cl)cc2)C1 (stereo not drawn) [PUT 108, 1-amino-3,3-di(4-chlorophenyl)cyclopentane] | 2.5 | – | > 40 | > 50 | > 23 | > 25 | 1 | – | 23 | > 40 | – | – | – | L-DOPA potentiation, entry given as a bound (no score) (Dopa response): > 10
